Marks after values point to notes of the source that are not given here.
Tests used:
Assay type in all cases: in vivo, Sprague-Dawley rats
[1] = system: osteopenic ovariectomized rats; assay: Compression testing of L-6 vertebra; settings: OVX rats; for Vert E (Young's modulus) / Vert u (toughness) / Vert σu (vertebral strength): lumbar vertebra in compression, mean ± SEM
Procedure: Bone strength of L-6 vertebrae was measured after the posterior processes were removed and the ends of the centrum made parallel using a diamond wafering saw (Buehler Isomet, Evanston, Ill.). Ultimate stress (σu) Young's modulus (E), and toughness (u) for each vertebra was measured in compression at a load rate of 50 N/sec using the MTS machine. The compressive load was applied through a pivoting platen to correct for nonparallel alignment of the faces of the vertebral body (Turner and Burr, 1993).
Specimens were tested in saline solution at 37° C. Ultimate stress was calculated as the maximum load divided by the gross cross-sectional area πAB/4, where A and B are the vertebral widths in the anterior-posterior and medial lateral directions. Young's modulus was calculated by multiplying stiffness times 4T/πAB, where T is the specimen thickness. Toughness was calculated as the area under the load-displacement curve divided by πABT/4.
(§1) In a second study, virgin Sprague-Dawley rats were bilaterally ovariectomized (except for the sham-operated group), the ovariectomized animals randomized, and allowed to lose bone for one month prior to treatment in the manner described above. The animal groups, each containing 7-8 animals, included sham-operated animals (SHAM); bilaterally ovariectomized animals (OVX); bilaterally ovariectomized animals treated with 0.01, 0.3 or 1 mg/kg/day of compound 1a, respectively, for three months; bilaterally ovariectomized animals treated subcutaneously with PTH(1-34) at a dose of 10 μg/kg/day for three months; bilaterally ovariectomized animals treated subcutaneously with PTH(1-34) at a dose of 10 μg/kg/day and orally with compound 1a at a dose of 0.3 mg/kg/day, both compounds administered for three months; bilaterally ovariectomized animals treated subcutaneously with PTH(1-34) at a dose of 10 μg/kg/day for forty-five days followed by gavage administration of vehicle for forty-five days; bilaterally ovariectomized animals treated subcutaneously with PTH(1-34) at a dose of 10 μg/kg/day for forty-five days followed by oral administration of only compound 1a at a dose of 0.3 mg/kg/day for forty-five days; and bilaterally ovariectomized animals treated with 17α-ethynyl estradiol administered orally at a dose of 0.1 mg/kg/day.

[2] = system: osteopenic ovariectomized rats; assay: Femoral neck strength (shear loading of proximal femur); set-up: Neck Fu (ultimate force): unit not given beside the values; settings: OVX rats; for Neck Fu (ultimate force): proximal femora in shear, mean ± SEM
Procedure: Femoral neck strength was measured by mounting the proximal half of the femur vertically in a chuck and applying downward force at a rate of 1 mm/sec on the femoral head until the neck failed. The ultimate load was calculated as the maximum force sustained by the femoral neck. All tests were done at room temperature using the MTS system.
as §1

[3] = system: osteopenic ovariectomized rats; assay: Longitudinal pQCT of proximal tibial metaphysis; settings: OVX rats, FIG. 1
Procedure: (§2) The metaphysis of proximal tibiae were scanned longitudinally from baseline, using a 960A pQCT loaded with Dichte software version 5.2 (Norland/Stratec, Ft. Atkinson, Wis.), using the technique described by Sato et al., —1995, JPET 272:1252-1259; Sato 1995, Bone 17:157S-162S). Volumetric bone mineral density (BMD, mg/cm3), cross-sectional area (X-Area), voxel number, and mineral content (BMC, mg) were quantitated for the whole cross-section of the metaphysis. Sites of excised bones were analyzed at higher resolution, using a micro-CT (Stratec). Specifically, distal femora (below the condyles, see Sato et al. 1995) and L-3 vertebra (mid-cross section, Helterbrand et al., 1997, Bone 21:401-409) were analyzed using voxel dimensions of 50 ×50×1000 μm and 70×70×1000 μm, respectively.
as §1
In the second study, the proximal tibial metaphysis was scanned longitudinally by pQCT for rats from baseline.
Treatment, as indicated, was initiated after 1 month postovariectomy and continued for the following 3 months. Specifically, administration of compound 1a alone(closed triangles), PTH (1-34) alone (open triangles), in combination (closed squares), or in sequence (closed diamonds) were compared to OVX (open circles), Sham (closed circles), and estrogen (EE2, open diamonds) controls.

[4] = system: osteopenic ovariectomized rats; assay: Three point bending test of femora mid-shaft; set-up: I (moment of inertia): unit not given beside the values; settings: OVX rats; for E (Young's modulus) / Fu (ultimate force) / I (moment of inertia) / t (cortical thickness) / u (toughness) / σu (strength): femora mid-shaft, mean ± SEM
Procedure: Bone strength was measured for the femoral neck, midshaft, and the L-6 vertebra. Femora were thawed before testing, and bone strength was measured on intact femora using a three point bending test. Load was applied midway between two supports that were 15 mm apart. The femora were positioned so the loading point was 7.5 mm proximal from the distal popliteal space and bending occurred about the medial-lateral axis. Specimens were tested in a saline bath at 37° C. Each specimen was submerged in the saline bath for three minutes before testing to allow equilibration of temperature. Load-displacement curves were recorded at a crosshead speed of 1 mm/sec using a servo-hydraulic materials testing machine (MTS Corp., Minneapolis, Minn.) and an x-y recorder (Hewlett Packard 7090A, Palo Alto, Calif.). The measurements included: cross-sectional moment of inertia (I), cortical thickness (t), ultimate load (Fu), ultimate stress (σu), Young's modulus (E), and toughness (u). These values were calculated as described previously (Turner and Burr 1993; Turner et al. 1996).
as §1

osteopenic rats [5] = assay: Micro-CT of distal femur metaphysis; settings: continuous treatment, 1a 0.01-1 mg/kg, 17α-ethynyl estradiol 0.1 mg/kg, PTH (1-34), 1a 0.3 mg/kg with PTH (1-34), FIG. 2
Procedure: as §2
(§3) In a second study, virgin Sprague-Dawley rats were bilaterally ovariectomized (except for the sham-operated group), the ovariectomized animals randomized, and allowed to lose bone for one month prior to treatment in the manner described above. […]

osteopenic rats [6] = assay: Micro-CT of L-3 vertebra; settings: continuous dosing, 1a 0.01-1 mg/kg, 17α-ethynyl estradiol 0.1 mg/kg, PTH (1-34), 1a 0.3 mg/kg with PTH (1-34), FIG. 3
Procedure: as §2, §3

[7] = PTH (1-34) discontinued after 45 days or switched to compound 1a
[8] = continuous treatment (PTH 90 days)
[9] = 3 months: PTH (1-34) 10 μg/kg/day s.c., 1a 0.3 mg/kg/day oral + PTH, EE2 0.1 mg/kg/day oral
[10] = PTH (1-34) 10 μg/kg/day s.c. 45 days, then vehicle or 1a 0.3 mg/kg/day oral 45 days

How did the “vertebral strength (Su) of L-6 vertebra (in words)” value [1, 7] turn out when “PTH: N-terminal 1-34 fragment of human parathyroid hormone, hPTH(1-34, Sequence ID No. 3); PTH/vehicle = 45 days PTH then vehicle” was run?
The value was “lowered Su to below Sham”.

And the “vertebral strength (Su) and toughness of L-6 vertebra (in words)” value [1, 8]?
Its value is “increased Su and toughness to above OVX and Sham levels”.

And the “Vert E (Young's modulus)” value [1, 9]?
Its value is 686 ± 77.

What about the “Vert u (toughness)” value [1, 9] of the same substance?
The value was 3.68 ± 1.10^s,o.

What about the “Vert σu (vertebral strength)” value [1, 9] of the same substance?
Its value is 45.5 ± 2.4^s,o.

What about the “Vert E (Young's modulus)” value [1, 10] of the same substance?
The value was 524 ± 109.

And the “Vert u (toughness)” value [1, 10]?
Its value is 1.16 ± 0.22.

And the “Vert σu (vertebral strength)” value [1, 10]?
Its value is 24.2 ± 2.5^s.

What about the “ultimate load for the femora neck (in words)” value [2] of the same substance?
The value was “higher than OVX and Sham”.

And the “Neck Fu (ultimate force)” value [2, 9]?
Its value is 148 ± 2.6^s,o.

And the “Neck Fu (ultimate force)” value [2, 10]?
The value was 116 ± 6.2.

What about the “volumetric BMD of proximal tibial metaphysis (pQCT)” value ([3]; PTH (1-34) 45 days then discontinued or switched to compound 1a, at termination) of the same substance?
The value was “BMD decreased to significantly below Sham”.

And the “volumetric BMD of proximal tibial metaphysis (pQCT)” value ([3]; after PTH (1-34) for 45 days)?
Its value is “regained BMD to Sham levels”.

And the “cortical thickness of femora mid-shaft (in words)” value [4, 7]?
The value was “lowered cortical thickness to below Sham”.

What about the “cortical thickness of femora mid-shaft (in words)” value [4, 8] of the same substance?
Its value is “increased cortical thickness above OVX”.

What about the “E (Young's modulus)” value [4, 9] of the same substance?
Its value is 9854 ± 597.

What about the “Fu (ultimate force)” value [4, 9] of the same substance?
The value was 202 ± 7^o.

And the “I (moment of inertia)” value [4, 9]?
The value was 4.86 ± .26.

And the “t (cortical thickness)” value [4, 9]?
The value was “.739 ± .023^o”.

And the “u (toughness)” value [4, 9]?
Its value is 5.24 ± .52^o.

And the “σu (strength)” value [4, 9]?
The value was 234 ± 9^o.

What about the “E (Young's modulus)” value [4, 10] of the same substance?
The value was 8516 ± 580.

What about the “Fu (ultimate force)” value [4, 10] of the same substance?
Its value is 171 ± 4^o.

And the “I (moment of inertia)” value [4, 10]?
The value was 4.72 ± .17.

What about the “t (cortical thickness)” value [4, 10] of the same substance?
Its value is “.630 ± .010^s”.

What about the “u (toughness)” value [4, 10] of the same substance?
Its value is 3.81 ± .24^s,o.

And the “σu (strength)” value [4, 10]?
The value was 205 ± 6^s,o.

And the “load to failure (Fu) and toughness of femora mid-shaft (in words)” value ([4]; 1a dose-dependent up to 1 mg/kg, EE2 0.1 mg/kg, PTH (1-34) 45 and 90 days, combination)?
The value was “improved Fu to above OVX”.

What about the “BMD of distal femur metaphysis (micro-CT)” value (osteopenic rats [5]) of the same substance?
Its value is “increased BMD was observed to levels significantly beyond OVX, Sham, and baseline levels”.

What about the “spinal BMD or BMC of L-3 vertebra (micro-CT)” value (osteopenic rats [6]) of the same substance?
Its value is “improved BMD to significantly above OVX”.

From patent US20020025929A1, “METHOD OF BUILDING AND MAINTAINING BONE” (priority 1997, published 2002)
